Assay results: patent US8337835B2, “Use of an endogenous ligand for peroxisome proliferator activated receptor alpha to treat liver disorders” (priority 2009, dated 2012)

Tests used:
[1] = system: PPARα-dependent genes (ACO and CPT-1) after CEPT1 knockdown; assay: Rescue of ACO and CPT-1 expression in Hepa 1-6 cells treated with CEPT1 siRNA; format: cell-based, mouse; details: 72 h CEPT1 siRNA, then 50 μM for 24 h
Procedure: The C57BL/6 mouse hepatoma cell line Hepa 1-6 (ATCC, CRL-1830) was expanded in DMEM with 10% fetal bovine serum. For experiments, cells were cultured to 50-60% confluence, washed twice with PBS, and the medium was changed to serum-free DMEM supplemented with the various types and concentrations of phosphatidylcholine (sonicated to homogeneity in PBS/1% ethanol/4% fatty acid-free BSA), Wy14,643 (dissolved in 80% PBS/20% DMSO), or vehicle-only solutions. 24 h later, cells were washed, RNA prepared, and ACO and CPT-1 expression levels were determined by quantitative RT-PCR (see FIG. 6). For siRNA experiments, 50-60% confluent cells were treated with siRNAs or their scrambled controls (all diluted in PBS) for 72 h. […]
(§1) Stealth™ siRNA oligonucleotides were used to inhibit the gene expression of mouse ChPT1 ([…]) (SEQ ID NO: 1) and CEPT1 ([…]) (SEQ ID NO: 2) were from Invitrogen (Carlsbad, Calif.). […] Expression of ACO and CPT-1 was also assessed 24 h after addition of 50 μM 16:0/18:1-GPC in a subset of Hepa 1-6 cells previously treated with CEPT1 siRNA. mRNA levels are normalized to control L32 ribosomal mRNA. […] FIGS. 6F-H show the binding of various peptide motifs to the purified PPARα (FIG. 6F), PPARδ (FIG. 6G), and PPARγ (FIG. 6H) LBD in the presence of 5 μM of the corresponding PPAR agonist or 16:0/18:1-GPC as measured by AlphaScreen assays. […]

[2] = biological target: T1, PPARγ LBD (Homo sapiens, UniProt P37231); assay: ALPHASCREEN binding assay, PPARγ ligand binding domain; details: 5 μM
T1 construct: Identical experiments were performed using the PPARδ and PPARγ LBDs; 6xHis; made in house
T1 sequence (P37231 238-503 limits assumed): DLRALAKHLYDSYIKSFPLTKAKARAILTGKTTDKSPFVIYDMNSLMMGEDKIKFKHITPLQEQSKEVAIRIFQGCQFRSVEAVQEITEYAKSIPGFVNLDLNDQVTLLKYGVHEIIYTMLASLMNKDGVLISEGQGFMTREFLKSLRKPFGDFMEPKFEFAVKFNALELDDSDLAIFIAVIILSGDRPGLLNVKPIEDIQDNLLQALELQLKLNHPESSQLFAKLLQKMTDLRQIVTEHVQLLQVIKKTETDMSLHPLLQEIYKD
Procedure: Binding of 16:0/18:1-GPC and known agonists to the ligand binding domain (LBD) of PPARα in the presence of various peptide motifs was determined by ALPHASCREEN™ assay (Proc Natl Acad Sci USA 105, pp. 5034-5039, 2008). Experiments used 100 nM receptor LBD, purified as 6× His tag fusion proteins (Mol Cell 17, pp. 491-502, 2005), and 20 nM of N-terminal biotinylated CBP1 peptide or other coactivator peptides in the presence of 5 μg/ml donor and acceptor beads in 50 mM MOPS (pH 7.4), 100 mM NaCl, and 0.1 mg/ml BSA for 90 min at 25° C. Signals were generated in the absence or the presence of ligand. Identical experiments were performed using the PPARδ and PPARγ LBDs.
as §1

Compound: CCCCCCCC/C=C\CCCCCCCC(=O)O[C@H](COC(=O)CCCCCCCCCCCCCCC)COP(=O)([O-])OCC[N+](C)(C)C [16:0/18:1-GPC, 1-palmitoyl-2-oleoyl-sn-glycerol-3-phosphocholine]
- rescue of decreased PPARα-dependent genes (ACO, CPT-1) after CEPT1 knockdown [1]: rescued
- binding to PPARγ [2]: does not appear to bind
